Laboratory results from PubChem BioAssay (NCI).
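Growth conditions: 96-well plates. Treatment: test compound, 48 hours, 5 concentrations. Analysis: linear interpolation between bracketing concentrations; unreached endpoints set to highest concentration. TGI: concentration producing complete growth inhibition.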

Legend:
Assay in all cases: DTP human tumour cell line panel, 48 h
U251 CNS = tested on: U251 CNS
HCT-116 colon = tested on: HCT-116 colon
TK-10 renal = tested on: TK-10 renal
HCT-15 colon = tested on: HCT-15 colon
SNB-19 CNS = tested on: SNB-19 CNS
SK-OV-3 ovarian = tested on: SK-OV-3 ovarian
EKVX NSCLC = tested on: EKVX NSCLC
M14 melanoma = tested on: M14 melanoma
K-562 leukemia = tested on: K-562 leukemia
UO-31 renal = tested on: UO-31 renal

| Compound | TGI (U251 CNS) [µM] | TGI (HCT-116 colon) [µM] | TGI (TK-10 renal) [µM] | TGI (HCT-15 colon) [µM] | TGI (SNB-19 CNS) [µM] | TGI (SK-OV-3 ovarian) [µM] | TGI (EKVX NSCLC) [µM] | TGI (M14 melanoma) [µM] | TGI (K-562 leukemia) [µM] | TGI (UO-31 renal) [µM] |
| --- | --- | --- | --- | --- | --- | --- | --- | --- | --- | --- |
| COc1ccc2nc3c([N+](=O)[O-])ccc4c3c(c2c1)NCCN4CCO | 1.85 | 1.22 | 4.51 | 2.68 | 3.08 | 3.58 | 2.97 | 1.78 | 1.08 | 1.47 |
| N#CCc1n[nH]c(Cc2ccccc2)n1 | > 100 | > 100 | > 100 | > 100 | > 100 | > 100 | > 100 | > 100 | > 100 | > 100 |
| O=C1NC(SSC2=NNC3(C(=O)N2)c2ccccc2-c2ccccc23)=NNC12c1ccccc1-c1ccccc12 | > 10 | > 10 | > 10 | > 10 | > 10 | > 10 | > 10 | > 10 | > 10 | > 10 |
| Cc1cccc2c(=O)c([Se]c3coc4c(C)cccc4c3=O)coc12 | 23.8 | 17.2 | 69.7 | 39.2 | 47.4 | 31.5 | 33.3 | 30.3 | > 100 | 28.7 |
| Cc1ccsc1/C=N/Nc1nc2ccccc2s1 | 28.3 | 23.2 | 26.9 | > 100 | 26.9 | 35.3 | 41.9 | > 100 | 34.9 | > 100 |
| O=C(c1ccco1)N1CCCN(C(=O)c2ccco2)C1=S | > 100 | > 100 | > 100 | > 100 | > 100 | > 100 | > 100 | > 100 | > 100 | > 100 |
| Cc1ccc(S(=O)(=O)N/N=C(\c2nc3ccc(Cl)cc3[nH]c2=O)C(O)c2cccc([N+](=O)[O-])c2)cc1 (stereo not given) | > 100 | > 100 | > 100 | > 100 | > 100 | > 100 | > 100 | > 100 | > 100 | > 100 |
| O=c1[nH]c(=O)n(C2OC(COP(=O)(O)OP(=O)(O)OC3OC(CO)C(O)C(O)C3O)C(O)C2O)cc1F (stereo not given) | > 100 | 1.23 | 30.4 | 11.5 | > 100 | > 87.5 | > 100 | > 50.1 | > 100 | 2.29 |
| COc1ccc2c(CCN)c(C(=O)O)[nH]c2c1 | > 100 | > 100 | > 100 | > 100 | > 100 | > 100 | > 100 | > 100 | > 100 | > 100 |
| O=C1c2ccc(O)cc2C(=O)c2ccc(O)cc21 | > 100 | > 100 | > 100 | > 100 | > 100 | 84.8 | > 100 | > 100 | > 100 | 73.2 |
| COC(=O)[C@@H]1[C@@H](c2cccc(Cl)c2)[C@H](C(=O)OC)C2(C[C@@]1(C)O)NCCS2 (stereo not given in full) | > 100 | > 100 | > 100 | > 100 | > 100 | > 100 | > 100 | > 100 | > 100 | > 100 |
| COC(=O)C1C/C(=C/N(C)C)C(=S)N1 (stereo not given) | > 100 | > 100 | > 100 | > 100 | > 100 | > 100 | > 100 | > 100 | > 100 | > 100 |
| COC(=O)C1=C(C(=O)OC)C(C(=O)c2ccc(Br)cc2)N2N=C(c3ccc(Cl)cc3)C=CC12 (stereo not given) | > 100 | > 100 | > 100 | > 100 | > 100 | > 100 | > 100 | > 100 | > 100 | > 100 |
| COC(=O)C(Cc1c(C2Nc3ccccc3C2CC(NC(=O)CNC(C)=O)C(=O)OC)[nH]c2ccccc12)NC(=O)CNC(C)=O (stereo not given) | > 100 | > 100 | > 100 | > 100 | > 100 | > 100 | > 100 | > 100 | > 100 | > 100 |
| CCOC(=O)c1ccc(Nc2c3c(nc4ccccc24)CCCC3)cc1 | > 100 | > 100 | > 100 | > 100 | > 100 | > 100 | > 100 | > 100 | > 100 | > 100 |
| COc1ccc2nc3ccc(OC)cc3c(SCCO)c2c1 | > 100 | > 69.8 | > 100 | > 100 | > 100 | > 100 | > 100 | > 100 | > 100 | > 100 |
| Cc1nc(C)c(C(=O)NNC(N)=S)cc1C(=O)NNC(N)=S | > 100 | > 100 | > 100 | > 100 | > 100 | > 100 | > 100 | > 100 | > 100 | > 100 |
| C[C@]12CCC(=O)C=C1CC[C@@H]1[C@@H]2[C@@H](O)C[C@@]2(C)[C@H]1CC[C@]2(O)C(=O)COC(=O)COCC(=O)O | > 100 | > 100 | > 100 | > 100 | > 100 | > 100 | > 100 | > 100 | > 100 | > 100 |
| COC(=O)/C=C\n1c(C)cc(=O)[nH]c1=O | > 100 | > 100 | > 100 | > 100 | > 100 | > 100 | > 100 | > 100 | > 100 | > 100 |
| CC(C)OP(=O)(OC(C)C)/C(I)=N/Nc1ccc([N+](=O)[O-])cc1 | > 100 | > 100 | > 100 | > 100 | > 100 | > 100 | > 100 | > 100 | > 100 | > 100 |
| CN(C)c1ccc(C(=C(c2ccc(N(C)C)cc2)c2ccc(N(C)C)cc2)c2ccc(N(C)C)cc2)cc1 | 28.1 | 42.1 | 31.5 | 32.7 | 29.4 | 41.8 | 34.4 | 22 | 36.9 | 39.9 |
